What was measured:
[1] = system: Tau protein at Serin396 in differentiated SH-SY5Y cells; assay: In vitro SH-SY5Y assay, tau phosphorylation; assay type: cell-based, human; settings: RA- and BDNF-differentiated SH-SY5Y cells, 90-120 min incubation, Western Blot or ELISA
From the text: Abnormal tau phosphorylation and deregulated CDK5/p35 activity are closely linked to each other and represent hallmarks of neurodegenerative diseases such as Alzheimer's disease, Parkinson's disease or Amyotrophic lateral sclerosis. The human neuroblastoma cell line SH-SY5Y can be utilized as an in vitro model to investigate CDK5 function and the efficacy of CDK5 specific inhibitors. SH-SY5Y cells express tau protein which harbors various phosphorylation sites known to be phosphorylated by several kinases including CDK5. SH-SY5Y cells can be differentiated into neuron-like cells by exposure to 10 μM all trans-retinoic acid for 3 days and subsequent exposure to 50 ng/ml human recombinant brain-derived neurotrophic factor for 3-5 days, thereby upregulating neuronal markers, including tau protein. In addition CDK5 and p35 protein levels were increased during differentiation. […]
Concentrations of total tau, pS396 tau and pT231 tau within the cell culture lysates are measured by using commercial ELISA Kits (BioSource: human total tau: KHB0042; human pS396 tau: KHB7031; human pT231 tau: KHB7051) according to the manufacturers instructions or by using Western Blots probing with total and phospho-specific antibodies (antibodies: total tau: Santa Cruz, sc-21796; pS396 tau: Santa Cruz, sc-12414; pT231 tau, AT180: Pierce Endogen, MN1040; pS202 tau: AT8: Pierce Endogen, MN1020). […]

| Compound | melting point [°C] | effect on Tau phosphorylation at Serin396 [1] |
| --- | --- | --- |
| CCOc1ccccc1-c1cc(Nc2ccc(CS(N)(=O)=O)cc2)ncn1 [Compound 6, {4-[6-(2-Ethoxy-phenyl)-pyrimidin-4-ylamino]-phenyl}-methanesulfonamide] | 213.5 to 215.1 | – |
| NS(=O)(=O)Cc1ccc(Nc2cc(-c3ccccc3OCc3ccccc3)ncn2)cc1 [Compound 8, {4-[6-(2-Benzyloxy-phenyl)-pyrimidin-4-ylamino]-phenyl}-methanesulfonamide] | – | significant inhibitory effect |
| COCCCNS(=O)(=O)Cc1cccc(Nc2cc(-c3ccccc3OC)ncn2)c1 [Reference compound 3, C-{3-[6-(2-methoxy-phenyl)-pyrimidin-4-ylamino]-phenyl}-N-(3-methoxy-propyl)-methanesulfonamide] | 149.2 to 150.8 | – |

From US20080275063A1, “Inhibitors of protein kinases” (priority 2007, published 2008)
